Measurements published in EP2354120A1, “Synthesis of acyloxyalkyl carbamate prodrugs and intermediates thereof” (XenoPort, Inc., priority 2003, dated 2005).
Where two headings read alike, the source gives them in different places.

Tests used:
[1] = test system: Caco-2 cells; conditions: human, Caco-2, 200 uM
Experimental: Caco-2 cells obtained from continuous culture (passage less than 28) were seeded at high density onto Transwell polycarbonate filters. […] Inserts were placed in 12 or 24 well plates containing buffer and incubated for 30 min at 37C°. Prodrug (200 µM) was added to the apical or basolateral compartment (donor) and concentrations of prodrug and/or released parent drug in the opposite compartment (receiver) were determined at intervals over 1 hour using LC/MS/MS. Values of apparent permeability (Papp) were calculated using the equation: Papp = Vr (dC/dt)//(ACo) [formula]
Here Vr is the volume of the receiver compartment in mL; dC/dt is the total flux of prodrug and parent drug (µM/s), determined from the slope of the plot of concentration in the receiver compartment versus time; Co is the initial concentration of prodrug in µM; A is the surface area of the membrane in cm^2.

[2] = test system: pancreatin; type: in vitro ADME, porcine; conditions: 5 µM
Text: The reaction was stopped by addition of 2 volumes of methanol.

[3] = type: physicochemical; conditions: after 60 min
Experimental: The chemical stability of prodrugs in aqueous buffers at pH's of 2.0, 7.4 and 8.0 were also measured. […] Each preparation was incubated with test compound at 37°C for one hour. Aliquots (50 µL) were removed at 0, 30, and 60 min and quenched with 0.1% trifluoroacetic acid in acetonitrile. Samples were then centrifuged and analyzed by LC/MS/MS (see Example 86 below for method details).

[4] = type: in vitro ADME; conditions: Rat Liver S9 (0.5 mg/mL), 2.0 µM, NADPH, 37°C, after 60 min
Experimental: (§1) The stabilities of prodrugs were evaluated in one or more in vitro systems using a variety of tissue preparations following methods known in the art. […] Tissues were obtained from commercial sources (e.g., Pel-Freez Biologicals, Rogers, AR, or GenTest Corporation, Woburn, MA). […] Each preparation was incubated with test compound at 37°C for one hour. Aliquots (50 µL) were removed at 0, 30, and 60 min and quenched with 0.1% trifluoroacetic acid in acetonitrile. Samples were then centrifuged and analyzed by LC/MS/MS (see Example 86 below for method details). […] After centrifugation at 14,000 rpm for 10 min, the supernatant was removed and analyzed by LC/MS/MS. • Caco-2 Homogenate S9 Stability: Caco-2 cells were grown for 21 days prior to harvesting. Culture medium was removed and cell monolayers were rinsed and scraped off into ice-cold 10 mM sodium phosphate/0.15 M potassium chloride, pH 7.4. Cells were lysed by sonication at 4°C using a probe sonicator. Lysed cells were then transferred into 1.5 mL centrifuge vials and centrifuged at 9000 g for 20 min at 4°C. […]
(§2) For stability studies, prodrug (5 µM) was incubated in Caco-2 homogenate S9 fraction (0.5 mg protein per mL) for 60 min at 37°C. Concentrations of intact prodrug and released baclofen were determined at zero time and 60 minutes using LC/MS/MS.

[5] = type: in vitro ADME; conditions: Human Plasma, 2.0 µM, 37°C, after 60 min
Experimental: as §1, §2

[6] = type: in vitro ADME; conditions: Caco-2 S9 (0.5 mg protein per mL), 5 µM, 37°C, after 60 min
Experimental: as §1, §2

[7] = type: in vitro ADME; conditions: Human Liver S9 (0.5 mg/mL), 2.0 µM, NADPH, 37°C, after 60 min
Experimental: as §1, §2

[8] = type: in vitro ADME; conditions: Rat Plasma, 2.0 µM, 37°C, after 60 min
Experimental: as §1, §2

[9] = oral; 2 mg t.i.d R-baclofen equivalent to 10 mg t.i.d. racemic baclofen; cited from earlier work
[10] = 1 % (w/v) pancreatin, pH 7.5, 37 °C, after 60 min

CC(=O)OCOC(=O)NC[C@H](CC(=O)[O-])c1ccc(Cl)cc1.[Na+] [(10), Sodium 4-[(Acetoxymethoxy)carbonylamino]-(3R)-(4-chlorophenyl)-butanoate]
Ratio A-B/B-A [1]: 1.2

O=C([O-])C[C@@H](CNC(=O)OCOC(=O)c1ccccc1)c1ccc(Cl)cc1.[Na+] [(12)]
Ratio A-B/B-A [1]: 5.9

O=C(O)C[C@@H](CNC(=O)OCOC(=O)C1CCCCC1)c1ccc(Cl)cc1 [(14), Sodium 4-[(Cyclohexanecarboxymethoxy)carbonylaminol-(3R)-(4-chlorophenyl)-butanoate]
% of Baclofen Released [2, 10]: 101%
% of Prodrug Remaining [2, 10]: 2%
Ratio A-B/B-A [1]: 4.1

CCCC(=O)OCOC(=O)NC[C@H](CC(=O)O)c1ccc(Cl)cc1 [(16), Sodium 4-[(Butanoyloxymethoxy)carbonylamino]-(3R)-(4-chlorophenyl)-butanoate]
% of Baclofen Released ([2]; pig, pancreatin, 1 h, pH 7.5): 84%
% of Prodrug Remaining ([2]; pig, pancreatin, 1 h, pH 7.5): 1%

CC(C)C(=O)OCOC(=O)NC[C@H](CC(=O)O)c1ccc(Cl)cc1 [(18), Sodium 4-[(Isobutanoyloxymethoxy)carbonylamino]-(3R)-(4-chlorophenyl)-butanoate]
% of Baclofen Released ([2]; pig, pancreatin, 1 h, pH 7.5): 91%
% of Prodrug Remaining ([2]; pig, pancreatin, 1 h, pH 7.5): 2%

CCCC(=O)OC(OC(=O)NC[C@H](CC(=O)O)c1ccc(Cl)cc1)C(C)C (stereo partly drawn) [(27), Sodium 4-[(1-Butanoyloxyisobutoxy)carbonylamino]-(3R)-(4-chlorophenyl)-butanoate]
% of Baclofen Released [2, 10]: 9%
% of Prodrug Remaining [2, 10]: 71%
Ratio A-B/B-A [1]: 6.9

CC(=O)OC(C)OC(=O)NC[C@H](CC(=O)O)c1ccc(Cl)cc1 (stereo partly drawn) [(30), Sodium 4-[(1-Acetoxyethoxy)carbonylamino]-(3R)-(4-chlorophenyl)-butanoate]
% of Baclofen Released ([2]; pig, pancreatin, 1 h, pH 7.5): 9%
% of Prodrug Remaining ([2]; pig, pancreatin, 1 h, pH 7.5): 90%

CCCC(=O)OC(C)OC(=O)NC[C@H](CC(=O)[O-])c1ccc(Cl)cc1.[Na+] (stereo partly drawn) [(32), Sodium 4-[(1-Butanoyloxyethoxy)carbonylamino]-(3R)-(4-chlorophenyl)-butanoate]
Ratio A-B/B-A [1]: 7.6

CC(OC(=O)NC[C@H](CC(=O)O)c1ccc(Cl)cc1)OC(=O)C1CCCCC1 (stereo partly drawn) [(38), Sodium 4-[(1-Cyclohexylcarbonyloxyethoxy)carbonylamino]-(3R)-(4-chlorophenyl)-butanoate]
Ratio A-B/B-A [1]: 1.1

CC(OC(=O)NC[C@H](CC(=O)[O-])c1ccc(Cl)cc1)OC(=O)c1ccccc1.[Na+] (some centres unmarked) [(40)]
% of Baclofen Released ([3]; aqueous buffer pH 2.0, 37°C): 0%
% of Prodrug Remaining ([3]; aqueous buffer pH 2.0, 37°C): 103%
% of Baclofen Released ([3]; aqueous buffer pH 7.4, 37°C): 0%
% of Prodrug Remaining ([3]; aqueous buffer pH 7.4, 37°C): 100%
% of Baclofen Released ([3]; aqueous buffer pH 8.0, 37°C): 2%
% of Prodrug Remaining ([3]; aqueous buffer pH 8.0, 37°C): 107%
% of Baclofen Released ([2]; pig, pancreatin, 1 h, pH 7.5): 58%
% of Prodrug Remaining ([2]; pig, pancreatin, 1 h, pH 7.5): 43%
% of Baclofen Released [4]: 96%
% of Prodrug Remaining [4]: 8%
% of Baclofen Released [5]: 2%
% of Prodrug Remaining [5]: 101%
% of Baclofen Released [6]: 85%
% of Prodrug Remaining [6]: 15%
% of Baclofen Released [7]: 105%
% of Prodrug Remaining [7]: 1%
% of Baclofen Released [8]: 17%
% of Prodrug Remaining [8]: 72%

CC(C)C(OC(=O)NC[C@H](CC(=O)O)c1ccc(Cl)cc1)OC(=O)C(C)(C)C (stereo partly drawn) [(43), Sodium 4-[(1-Pivaloyloxyisobutoxy)carbonylamino]-(3R)-(4-chlorophenyl)-butanoate]
% of Baclofen Released [2, 10]: 4%
% of Prodrug Remaining [2, 10]: 82%
Ratio A-B/B-A [1]: 2.3

CCC(=O)OC(OC(=O)NC[C@H](CC(=O)[O-])c1ccc(Cl)cc1)C(C)C.[Na+] (stereo partly drawn) [(48), Sodium 4-[(1-Propanoyloxyisobutoxy)carbonylamino]-(3R)-(4-chlorophenyl)-butanoate]
Ratio A-B/B-A [1]: 6.5

CCOC(C)(OCC)C(=O)OCOC(=O)NC[C@H](CC(=O)[O-])c1ccc(Cl)cc1.[Na+] [(51), Sodium 4-[(2,2-Diethoxypropanoyloxymethoxy)carbonylamino]-(3R)-(4-chlorophenyl)-butanoate]
Ratio A-B/B-A [1]: 3.0

COc1ccc(C(=O)OCOC(=O)NC[C@H](CC(=O)[O-])c2ccc(Cl)cc2)cc1.[Na+] [(53), Sodium 4-[(4-Methoxybenzoloxymethoxy)carbonylamino]-(3R)-(4-chlorophenyl)-butan oate]
Ratio A-B/B-A [1]: 2.4

O=C(O)C[C@@H](CNC(=O)OCOC(=O)CCc1ccccc1)c1ccc(Cl)cc1 [(62), Sodium 4-[(3-Phenylpropionoyloxymethoxy)carbonylamino]-(3R)-(4-chlorophenyl)-butanoate]
% of Baclofen Released [2, 10]: 79%
% of Prodrug Remaining [2, 10]: 1%

CCCC(OC(=O)NC[C@H](CC(=O)[O-])c1ccc(Cl)cc1)OC(=O)c1ccccc1.[Na+] (stereo partly drawn) [(71), Sodium 4-[(1-Benzoyloxybutoxy)carbonylamino]-(3R)-(4-chlorophenyl)-butanoate]
Ratio A-B/B-A [1]: 7.1

CCCC(OC(=O)NC[C@H](CC(=O)[O-])c1ccc(Cl)cc1)OC(=O)C(C)C.[Na+] (stereo partly drawn) [(72), Sodium 4-[(1-Isobutanoyloxybutoxy)carbonylamino]-(3R)-(4-chlorophenyl)-butanoate]
Ratio A-B/B-A [1]: 3.5

CCCC(=O)OC(CCC)OC(=O)NC[C@H](CC(=O)[O-])c1ccc(Cl)cc1.[Na+] (stereo partly drawn) [(73), Sodium 4-[(1-Butanoyloxybutoxy)carbonylamino]-(3R)-(4-chlorophenyl)-butanoate]
Ratio A-B/B-A [1]: 3.2

CCCC(=O)OC(CC)OC(=O)NC[C@H](CC(=O)[O-])c1ccc(Cl)cc1.[Na+] (stereo partly drawn) [(78), Sodium 4-[(1-Butanoyloxypropoxy)carbonylamino]-(3R)-(4-chlorophenyl)-butanoate]
Ratio A-B/B-A [1]: 7.9

CCCC(=O)O[C@H](CCC)OC(=O)NC[C@H](CC(=O)O)c1ccc(Cl)cc1 [(86), Sodium 4-{[(1S)-Butanoyloxybutoxy]carbonylamino}-(3R)-(4-chlorophenyl)-butanoate]
% of Baclofen Released [2, 10]: 76%
% of Prodrug Remaining [2, 10]: 4%

CCCC(=O)O[C@H](OC(=O)NC[C@H](CC(=O)O)c1ccc(Cl)cc1)C(C)C [(90), Sodium 4-{[(1R)-Butanoyloxyisobutoxy]carbonylamino}-(3R)-(4-chlorophenyl)-butanoate]
% of Baclofen Released [2, 10]: 68%
% of Prodrug Remaining [2, 10]: 9%

CC(C)C(=O)O[C@@H](OC(=O)NC[C@H](CC(=O)O)c1ccc(Cl)cc1)C(C)C [(104), 4-{[(1S)-Isobutanoyloxyisobutoxy]carbonylamino}-(3R)-(4-chlorophenyl) -butanoic Acid]
% of Baclofen Released ([2]; 1 % (w/v) pancreatin, pH 7.5, 37 °C, after 60 min, 60 min): 6%
% of Prodrug Remaining ([2]; pig, pancreatin, 1 h, pH 7.5): 90%

NC[C@H](CC(=O)O)c1ccc(Cl)cc1 [R-baclofen, R-(-)-baclofen]
potency relative to orally administered racemic baclofen [9]: about 5 fold
